Measured values as given in US20190290694A1, “STABLY ENGINEREED PROTEASOME INHIBITOR RESISTANT IMMUNE CELLS FOR IMMUNOTHERAPY” (CELLECTIS, priority 2016, published 2019).

Experiments:
[1] = test system: GECKO-transduced primary T-cells; test: Puromycine resistance test of mock- and GECKO-transduced primary T-cells (viability by flow cytometry); type: cell-based, human; set-up: dose or concentration left out as unconfirmed; settings: GECKO-transduced versus mock T-cells, 3 days, simultaneous activation/transduction, FIG. 5
Procedure: Peripheral blood mononuclear cells (PBMC) were obtained from healthy volunteer donors and T-lymphocytes were purified using the EasySep human T-cell enrichment kit (Stemcell Technologies). By contrast with the GECKO protocol described by Shalem et al., primary T-cells were activated and immediately transduced with the viral particles. The T-cells were first mixed with dynabeads (25 uL/10^6 T-cells) in Xvivo-15 media and then plated on 12 well plates coated by 30 ug/mL retronectin per well (iml of retronectin per well incubated 1 hour at 37° C. followed by a washing steps using 1 ml of PBS 2% FBS) in a total volume of 400 μL. The mixture was supplemented by either 200 μL of GECKO lentiviral particles or 200 μL of Xvivo-15 media and incubated 2H at 37° C. and 5% CO2. The mixture was then supplemented by 600 μL of Xvivo-15 media, 10% AB serum and 40 ng/mL IL2 and incubated overnight at 37° C. with 5% CO2. Cells were then washed with 1.5 ml of Xvivo-15 media and resuspended in Xvivo-15 media, 5% AB serum, 20 ng/mL IL-2 in 6 wells plate at 10^6 cells/mL.
3 days post transduction, cells were recovered and used to perform a puromycine resistance test. […] FIG. 2 illustrates the puromycine sensitivity pattern of mock- and GECKO-transduced primary T-cells determined by flow cytometry. […] Cells are then recovered, labeled using EFluor780 dye and analyzed by flow cytometry to determine their viability. […]

[2] = test system: CART cells that express mutated PSMB5; test: Bortezomib dose response, viability of CART cells coexpressing mutated PSMB5; type: cell-based, human; settings: CART cells that express mutated PSMB5 as compared to WT CART cells and NT cells, 48h, FIG. 4
Procedure: (§1) To investigate whether overexpressing POMP, PSMB5 or mutated PSMB5 on CART cells confers resistance to bortezomib treatment, T-cells frozen PBMCs were thawed and activated using Dynabeads human T activator CD3/CD28. 3 days after their activation 1 million T-cells were transduced or not using the CD123 CAR and one of the ORF at a MOI of 5 for both lentiviral particles. Cells were then immediately diluted in X-Vivo-15 media supplemented by 20 ng/ml IL-2 and 5% human serum AB and diluted at 1×10^6 cells/ml and kept in culture at 37° C. in the presence of 5% CO2. 7 days later, T cells, CART cells and MOLM13 cells were cultured for 48h in the presence of increasing doses of bortezomib ranging from 0 to 100 μM. At the end of the culture cell viability was assessed by flow cytometry using a live dead cell marker.

[3] = test system: primary T cell; test: Bortezomib dose response, viability of primary T cells by flow cytometry (live dead cell marker); type: cell-based; settings: Homo sapiens, cultured for 48h with bortezomib, FIG. 1A, read-out: EC50 of Bortezomib (cell depletion / viability)
Excerpt: (§2) Peripheral blood mononuclear cells (PBMC) were obtained from healthy volunteer donors as described by Schwartz J. et al. (Guidelines on the use of therapeutic apheresis in clinical practice-evidence-based approach from the Writing Committee of the American Society for Apheresis: the sixth special issue (2013) J Clin Apher. 28(3):145-284).
(§3) To investigate whether bortezomib treatment modify the survival of primary cells, frozen PBMCs were thawed and activated using Dynabeads human T activator CD3/CD28. 3 days after their activation, 1 million cells were transduced using a CD123 CAR (specific for CD123) at a MOI of 5. Cells were then immediately diluted in X-Vivo-15 media supplemented by 20 ng/ml IL-2 and 5% human serum AB and diluted at 1×10^6 cells/ml and kept in culture at 37° C. in the presence of 5% CO2. […] At the end of the culture cell viability was assessed by flow cytometry using a live dead cell marker.

[4] = test system: CART cells that express PSMB5; test: Bortezomib dose response, viability of CART cells coexpressing PSMB5; type: cell-based, human; settings: CART cells that express PSMB5 as compared to WT CART cells and NT cells, 48h, FIG. 4
Procedure: as §1

[5] = test system: primary CAR T-cell (CAR anti-CD123); test: Bortezomib dose response, viability of primary CAR T-cells (CAR anti-CD123) by flow cytometry; type: cell-based, human
Excerpt: as §2
To investigate whether bortezomib treatment modify the survival of primary cells, frozen PBMCs were thawed and activated using Dynabeads human T activator CD3/CD28. 3 days after their activation, 1 million cells were transduced using a CD123 CAR (specific for CD123) at a MOI of 5. Cells were then immediately diluted in X-Vivo-15 media supplemented by 20 ng/ml IL-2 and 5% human serum AB and diluted at 1×10^6 cells/ml and kept in culture at 37° C. in the presence of 5% CO2. 7 days later, T cells, CART cells and MOLM13 cells were cultured for 48h in the presence of bortezomib increasing doses of bortezomib ranging from 0 nM to […]. At the end of the culture cell viability was assessed by flow cytometry using a live dead cell marker.
To investigate whether overexpressing POMP, PSMB5 or mutated PSMB5 on CART cells confers resistance to bortezomib treatment, T-cells frozen PBMCs were thawed and activated using Dynabeads human T activator CD3/CD28. […] At the end of the culture cell viability was assessed by flow cytometry using a live dead cell marker.

[6] = test system: MOLM13 cell line; test: Bortezomib dose response, viability of MOLM13 cells by flow cytometry; type: cell-based; settings: Homo sapiens, MOLM-13, cultured for 48h with bortezomib, FIG. 1C, read-out: EC50 of Bortezomib (cell depletion / viability)
Procedure: as §3

COc1ccc(C[C@H](N)C(=O)N[C@H]2[C@@H](O)[C@H](n3cnc4c(N(C)C)ncnc43)O[C@@H]2CO)cc1 [puromycine]
puromycine sensitivity (viability frequency) [1]: more resistance

CC(C)C[C@H](NC(=O)[C@H](Cc1ccccc1)NC(=O)c1cnccn1)B(O)O [bortezomib]
EC50 of bortezomib, change [2]: increased | EC50 [3]: ~0.01 µM | EC50 of bortezomib, change [4]: increased | EC50 of bortezomib, change ([5]; CART cells as compared to non-transduced cells, 48h, FIG. 4): increased | EC50 ([5]; Homo sapiens, T-cell, primary CART cells (CD123 CAR), cultured for 48h with bortezomib, FIG. 1B, read-out: EC50 of Bortezomib (cell depletion / viability)): ~0.01 µM | EC50 [6]: ~0.01 µM
